These results are taken from US20120310117A1, “METHOD FOR […] AND RELATED […]” (The McLean Hospital Corporation, priority 2009, published 2012).

The subject of one assay is dopamine reuptake. Particulars: cited from earlier work.
The conditions of assay [1]: cited from earlier work.
The conditions of assay [2]: 2.5 mg of Focalin has the same therapeutic benefit as 5.0 mg of Ritalin; cited from earlier work.
Assay [3] relates to boys 9-12 years of age with ADHD combined subtype. Description: Infrared motion analysis of head marker movements during a 15-minute cognitive control task (Quotient Test), PRE and 120 minutes POST probe dose MPH. Type of assay: in vivo, human. On the procedure: Data were analyzed from a study approved and monitored by the McLean Hospital Institutional Review Board […]. The ADHD sample consisted of 62 boys between 9-12 years of age who met Diagnostic and Statistical Manual of Mental Disorders, 4th edition (DSM-IV) (Diagnostic and statistical manual of mental disorders: DSM-IV.—4th ed., text revision. Washington, D.C: American Psychiatric Association; 2000) criteria for ADHD combined subtype. Subjects were recruited from the general population via newspaper advertisement for hyperactive boys who were currently or previously treated with MPH, as the protocol called from them to receive a moderately large probe dose of immediate release MPH. This was easier to justify in subjects known to tolerate MPH without untoward effects. Parental written consent and child verbal assent were obtained. […] Seventy-three boys went through the screening procedures, which included structured interviews for DSM-IV Axis I psychiatric diagnoses using K-SADS-E (Orvaschel H, Puig-Antich J. Schedule for Affective Disorder and Schizophrenia for School-Age Children, Epidemiologic Version, Fifth Revision. Fort Lauderdale, Fla.: Nova Southeastern University; 1994); and parent ratings on the Conners' Hyperactivity Index (Conners et al., J Abnorm Child Psychol. 26:257 (1998)) and Achenbach Child Behavior Checklist (CBCL) (Achenbach T. Integrative Guide to the 1991 CBCL/4-18, YSR, and TRF Profiles. Burlington, Vt.: University of Vermont, Department of Psychology; 1991). Children with ADHD could not have any current major mood disorder, psychosis, tic disorder, a major anxiety disorder, or mental retardation. Children with oppositional defiant disorder (ODD), or reported learning disorders, could participate. From this pool of subjects, 11 were excluded from further participation. […] One subject was disqualified for drug use, another was disqualified for current antidepressant treatment of night terrors, and one withdrew before the probe dose. […] In this sample, there were 19 boys with comorbid ODD, 2 with current dysthymia, 4 with learning disorders, and 3 with past major depression or past anxiety disorders. […] Sixty of these subjects were previously included in a study examining fluctuations in attentional state (Teicher et al., J Child Adolesc Psychopharmacol. 14:219 (2004)), and 48 were included in a study on pharmacokinetic-pharmacodynamic response to methylphenidate (Teicher et al., J Child Adolesc Psychopharmacol. 16:416 (2006)).
For comparison, we analyzed data from a representative non-clinical contrast group. This group consisted of 62 male students, randomly selected from a sample of 1168 subjects (6-14 years of age) tested at local public schools using teacher ratings and a computerized attention task with infrared motion analysis (Teicher et al., J Am Acad Child Adolesc Psychiatry 35:334 (1996); Quotient Test, BioBehavioral Diagnostic Company, Cambridge, Mass.). This large-scale database development study was approved by the McLean Hospital IRB and the school administrators. Parents provided written consent and children gave verbal assent to participate. Subjects selected from this sample were male, and matched 1:1 with the ADHD subjects by age to the nearest month (11.0±1.0 years). The selection criteria applied for this analysis was that they needed to have Conners' Teacher Ratings (Conners C K. American Journal of Psychiatry 126:884 (1969)) that were within ±1 SD of the mean of peers their own age and gender (i.e., T score<60), to help exclude subjects with potential ADHD.
Children with ADHD were tested prior to (PRE) and 120-minutes following (POST) a probe dose of 0.4 mg/kg MPH. Contrast subjects only received a single Quotient Test, which was specifically designed to provide objective measures of hyperactivity, inattention and impulsivity (Teicher et al., J Am Acad Child Adolesc Psychiatry 35:334 (1996)). […]

As for `CC(NC(C)(C)C)C(=O)c1cccc(Cl)c1` (stereo not drawn) [Bupropion], the “potency as inhibitor of dopamine reuptake relative to norepinephrine reuptake” value in the assay with dopamine reuptake was “about twice as potent”.
As for `COC(=O)[C@H](c1ccccc1)[C@H]1CCCCN1` [Focalin], the “onset of action, in words” value in assay [1] (after administration) is reported as “immediately”. Further, the “potency relative to methylphenidate” value in assay [2] is on record as “twice as potent”.
On to `CNCC[C@@H](Oc1ccccc1C)c1ccccc1` [Atomoxetine], for which the “coverage of symptoms associated with ADHD” value in assay [1] (clinical trials in adults and children) was 24 h.
For the compound `COC(=O)C(c1ccccc1)C1CCCCN1` (stereo not drawn) [MPH, methylphenidate], in assay [3] (ADHD POST vs contrast), the “MLE in ADHD after MPH relative to contrast subjects” value is 4.8 fold; the “ROC Area for MLE, ADHD POST vs contrast subjects” value is 0.995; the “ROC Area for β, ADHD POST vs contrast subjects” value stood at 0.850; the “effect size d' for MLE, ADHD after MPH vs contrast subjects” value turned out to be 3.1. The “percentage of ADHD subjects with evidence for a deterministic chaotic component to head movements after MPH” value in assay [3] (MLE vs surrogate data, fell from 84% PRE, 41/62 POST) is on record as 66%. Also, the “baseline and spike amplitudes and spike numbers relative to contrast group” value in assay [3] (Max-Pass, ADHD POST vs contrast controls) was “suppressed to at or below contrast group levels”. For the same compound, the “reduction of spike amplitude” value in assay [3] (Max-Pass, POST (120 min after 0.4 mg/kg MPH) vs PRE) came to 52%. Also, the “reduction of baseline amplitude” value in assay [3] (Max-Pass, POST (120 min after 0.4 mg/kg MPH) vs PRE, 62 ADHD boys) was 63%. Moreover, the “reduction of number of spikes” value in assay [3] (Max-Pass, POST vs PRE) came to 35%. Also, in assay [3] (POST vs PRE), the “effect size of MPH on ApEn, β and MLE” value is recorded as 1.0-1.2. In assay [3] (baseline and spike amplitude, POST vs PRE), the “within subject reduction in composite inhibitory measures” value is on record as 58.3%±39.9%. Further, the “ADHD subjects POST with evidence for a deterministic component to head positions” value in assay [3] (correlation dimension method with surrogate data, 56/62 PRE) was 62/62. Also, in assay [3] (first 5 minutes of the test), the “inhibitory measures POST MPH vs controls” value is recorded as “did not differ from controls” and the “non-linear measures POST MPH vs controls” value is recorded as “remained distinctly different than controls”. Further, the “Spike area (SpArea) PST AVG” value in assay [3] (post-medication ADHD subjects, N 62, PRE AVG 100897.28, CTRL AVG 42396.0034) was 36631.5066. In addition, in assay [3] (spike detection by cluster analysis, ADHD POST vs contrast controls), the “baseline and spike amplitudes relative to contrast group” value is “at or below contrast group levels”. For the same compound, the “reduction in composite measures of positional stability” value in assay [3] (β, MLE, POST vs PRE) is reported as 16.6%±19.2%.
